# Experimental data taken from the supplement of paper PMC11208160.
# Assay: recombinant UMI read abundance after kanamycin selection (control-corrected) (log10(CPM+1)); higher = more efficient recombination; extreme values may be limits of the assay; sequences stand for … in AGTGCAGAGAAAATCGGCCAGTTTTCTCTGCCTGCAGTCCGCATGCCGTGGGACCCCTTGGGTTCTAACCTGTTGCCTAGATTTATGCAGCGGACTGCCTTTCTCCCAAAGTGATAAACCGG…AGGTTGGTTTCACT; site = the 11-nt donor
# Summary of the method: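 Sequencing read counts were converted to CPM, averaged over two replicates and scaled by control-derived factors. Results are given as log10(CPM+1). The reads covered the donor–target junction of recombinant UMIs from a pooled Escherichia coli screen of donor and donor-binding-loop pairs for the IS621 bridge recombinase.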
# 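Note: IS621 bridge recombinase in Escherichia coli cells against a fixed T5 target plasmid.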
row,Sequence,recombinant UMI read abundance (log10)
1,TCCACCGCATGGACCGGTTTTCCCGGTAATCCGTATTTGCG (site TCAACCGCTCG),0.00833
2,TCCACCGCATGGACCGGTTTTCCCGGTAATCCGTATTTGCG (site TCCAACGCTCG),0
3,TCCACCGCATGGACCGGTTTTCCCGGTAATCCGTATTTGCG (site TCCACAGCTCG),0.00578
4,TCCACCGCATGGACCGGTTTTCCCGGTAATCCGTATTTGCG (site TCCACCACTCG),0.00973
5,TCCACCGCATGGACCGGTTTTCCCGGTAATCCGTATTTGCG (site TCCACCCCTCG),0.0195
6,TCCACCGCATGGACCGGTTTTCCCGGTAATCCGTATTTGCG (site TCCACCGCTAG),0.00776
7,TCCACCGCATGGACCGGTTTTCCCGGTAATCCGTATTTGCG (site TCCACCGCTCA),0.0193
8,TCCACCGCATGGACCGGTTTTCCCGGTAATCCGTATTTGCG (site TCCACCGCTCC),0.0232
9,TCCACCGCATGGACCGGTTTTCCCGGTAATCCGTATTTGCG (site TCCACCGCTCG),0.0267
10,TCCACCGCATGGACCGGTTTTCCCGGTAATCCGTATTTGCG (site TCCACCGCTCT),0.0151
11,TCCACCGCATGGACCGGTTTTCCCGGTAATCCGTATTTGCG (site TCCACCGCTGG),0
12,TCCACCGCATGGACCGGTTTTCCCGGTAATCCGTATTTGCG (site TCCACCGCTTG),0
13,TCCACCGCATGGACCGGTTTTCCCGGTAATCCGTATTTGCG (site TCCACCTCTCG),0.00739
14,TCCACCGCATGGACCGGTTTTCCCGGTAATCCGTATTTGCG (site TCCACGGCTCG),0
15,TCCACCGCATGGACCGGTTTTCCCGGTAATCCGTATTTGCG (site TCCACTGCTCG),0.0248
16,TCCACCGCATGGACCGGTTTTCCCGGTAATCCGTATTTGCG (site TCCAGCGCTCG),0.0215
17,TCCACCGCATGGACCGGTTTTCCCGGTAATCCGTATTTGCG (site TCCATCGCTCG),0.0351
18,TCCACCGCATGGACCGGTTTTCCCGGTAATCCGTATTTGCG (site TCCCCCGCTCG),0.1
19,TCCACCGCATGGACCGGTTTTCCCGGTAATCCGTATTTGCG (site TCCGCCGCTCG),0.0234

row,Sequence,recombinant UMI read abundance (log10)
1,TCCACCGCATGGACCGGTTTTCCCGGTAATCCGTATTTGCG (site TCCTCCGCTCG),0.0203
2,TCCACCGCATGGACCGGTTTTCCCGGTAATCCGTATTTGCG (site TCGACCGCTCG),0.023
3,TCCACCGCATGGACCGGTTTTCCCGGTAATCCGTATTTGCG (site TCTACCGCTCG),0.0356
4,TCCACCGCATGGACCGGTTTTCCCGGTAATCCGTATTTGCG (site TGCACCGCTCG),0.0462
5,TCCACCGCATGGACCGGTTTTCCCGGTAATCCGTATTTGCG (site TTCACCGCTCG),0.00717
6,TCCACCTCATGGACCGGTTTTCCCGGTAATCCGTATTTGCG (site TCCACCACTCG),0.00715
7,TCCACCTCATGGACCGGTTTTCCCGGTAATCCGTATTTGCG (site TCCACCCCTCG),0.0186
8,TCCACCTCATGGACCGGTTTTCCCGGTAATCCGTATTTGCG (site TCCACCGCTCG),0.0129
9,TCCACCTCATGGACCGGTTTTCCCGGTAATCCGTATTTGCG (site TCCACCTCTCG),0.0255
10,TCCACGCCATGGACCGGTTTTCCCGGTAATCCGTATTTGTA (site ACCACGCCTTA),0.0141
11,TCCACGCCATGGACCGGTTTTCCCGGTAATCCGTATTTGTA (site CCCACGCCTTA),0.038
12,TCCACGCCATGGACCGGTTTTCCCGGTAATCCGTATTTGTA (site GCCACGCCTTA),0.00791
13,TCCACGCCATGGACCGGTTTTCCCGGTAATCCGTATTTGTA (site TCCACGCCTTA),0.0284
14,TCCACGGCATGGACCGGTTTTCCCGGTAATCCGTATTTGCG (site TCCACAGCTCG),0.0432
15,TCCACGGCATGGACCGGTTTTCCCGGTAATCCGTATTTGCG (site TCCACCGCTCG),0.023
16,TCCACGGCATGGACCGGTTTTCCCGGTAATCCGTATTTGCG (site TCCACGGCTCG),0.0249
17,TCCACGGCATGGACCGGTTTTCCCGGTAATCCGTATTTGCG (site TCCACTGCTCG),0
18,TCCACTTCATGGACCGGTTTTCCCGGTAATCCGTATTTGCC (site TCCAATTCTGG),0
19,TCCACTTCATGGACCGGTTTTCCCGGTAATCCGTATTTGCC (site TCCACTTCTGG),0

row,Sequence,recombinant UMI read abundance (log10)
1,TCCACTTCATGGACCGGTTTTCCCGGTAATCCGTATTTGCC (site TCCAGTTCTGG),0
2,TCCACTTCATGGACCGGTTTTCCCGGTAATCCGTATTTGCC (site TCCATTTCTGG),0
3,TCCAGATCATGGACCGGTTTTCCCGGTAATCCGTATTTGGG (site TCCAGATCTCC),0
4,TCCAGTGCATGGACCGGTTTTCCCGGTAATCCGTATTTGCT (site TCCAGTGCTAG),0
5,TCCATTCCATGGACCGGTTTTCCCGGTAATCCGTATTTGGA (site TCCATTCCTTC),0.0134
6,TCCCAAACATGGACCGGTTTTCCCGGTAATCCGTATTTGCT (site TCCCAAACTAG),0.0138
7,TCCCACCCATGGACCGGTTTTCCCGGTAATCCGTATTTGAT (site TCCCACCCTAT),0.0298
8,TCCCGCCCATGGACCGGTTTTCCCGGTAATCCGTATTTGCT (site TCCCGCCCTAG),0.00858
9,TCCCTTCCATGGACCGGTTTTCCCGGTAATCCGTATTTGCG (site TCCCTTCCTCG),0
10,TCCGCTGCATGGACCGGTTTTCCCGGTAATCCGTATTTGAA (site TCCGCTGCTTT),0
11,TCCGGTGCATGGACCGGTTTTCCCGGTAATCCGTATTTGCC (site TCCGGTGCTGG),0
12,TCCTACCCATGGACCGGTTTTCCCGGTAATCCGTATTTGGT (site TCCTACCCTAC),0.00951
13,TCCTAGCCATGGACCGGTTTTCCCGGTAATCCGTATTTGTA (site TCCTAGCCTTA),0.0223
14,TCCTATTCATGGACCGGTTTTCCCGGTAATCCGTATTTGCC (site TCCAATTCTGG),0
15,TCCTATTCATGGACCGGTTTTCCCGGTAATCCGTATTTGCC (site TCCCATTCTGG),0
16,TCCTATTCATGGACCGGTTTTCCCGGTAATCCGTATTTGCC (site TCCGATTCTGG),0
17,TCCTATTCATGGACCGGTTTTCCCGGTAATCCGTATTTGCC (site TCCTATTCTGG),0
18,TCCTCCCCATGGACCGGTTTTCCCGGTAATCCGTATTTGCG (site TCCTCCCCTCG),0.00424
19,TCCTCCGCATGGACCGGTTTTCCCGGTAATCCGTATTTGCG (site TCCACCGCTCG),0.00517
